Reference: US20160250224A1, “OREXIN-CONTROL OF BONE FORMATION AND LOSS” (THE BOARD OF REGENTS OF THE UNIVERSITY OF TEXAS SYSTEM, priority 2013, published 2016)
Where no end group is shown, it is not given here.

What was measured:
[1] = test system: ghrelin; test: Ghrelin expression and secretion in marrow adipocyte differentiation cultures; type: cell-based, mouse; conditions: for ghrelin expression in adipocyte differentiation cultures: 10 nM, ghrelin mRNA; for ghrelin secretion: adipocyte culture (not shown)
[2] = test system: osteoblast differentiation from WT marrow; test: Ex vivo bone marrow osteoblast differentiation; type: cell-based, mouse; conditions: 10 nM, vs vehicle control
Method: (§1) Ex Vivo Bone Marrow Differentiation. Bone marrow cells were cultured for 4 days in MSC media (Mouse MesenCult® Proliferation Kit, StemCell Technologies), then differentiated into osteoblast with a-MEM containing 10% FBS, 5 mM β-glycerophosphate and 100 μg/ml ascorbic acid for 9 days, or differentiated into adipocytes with adipogenesis medium (MesenCult Basal Medium+Mouse MesenCult Adipogenic Stimulatory Supplement, StemCell Technologies) for 7 days (Wei et al., 2012; Wei et al., 2011a; Wei et al., 2011b). For ghrelin knockdown, siRNA was transfected twice with Fugene HD (Roche) the day before and 3 days after differentiation. Osteoclast differentiation was performed as described (Wan et al., 2007; Wei et al., 2010).

[3] = test system: adipocyte differentiation from WT marrow; test: Ex vivo bone marrow adipocyte differentiation; type: cell-based, mouse; conditions: 10 nM, vs vehicle control
Method: as §1

[4] = test system: ghrelin; test: Ghrelin expression and secretion in marrow osteoblast differentiation cultures; type: cell-based, mouse; conditions: 10 nM; for ghrelin induction during osteoblast differentiation: ghrelin mRNA; for ghrelin secretion: osteoblast culture
[5] = biological target: T1, orexin-A receptor (Rattus norvegicus, UniProt P56718); conditions: rats, low doses; cited from earlier work
T1 construct: The insula contains orexin-A receptors; from tissue; host or cells: rat brain (insula; whole brain), in vivo
T1 sequence (P56718 1-416): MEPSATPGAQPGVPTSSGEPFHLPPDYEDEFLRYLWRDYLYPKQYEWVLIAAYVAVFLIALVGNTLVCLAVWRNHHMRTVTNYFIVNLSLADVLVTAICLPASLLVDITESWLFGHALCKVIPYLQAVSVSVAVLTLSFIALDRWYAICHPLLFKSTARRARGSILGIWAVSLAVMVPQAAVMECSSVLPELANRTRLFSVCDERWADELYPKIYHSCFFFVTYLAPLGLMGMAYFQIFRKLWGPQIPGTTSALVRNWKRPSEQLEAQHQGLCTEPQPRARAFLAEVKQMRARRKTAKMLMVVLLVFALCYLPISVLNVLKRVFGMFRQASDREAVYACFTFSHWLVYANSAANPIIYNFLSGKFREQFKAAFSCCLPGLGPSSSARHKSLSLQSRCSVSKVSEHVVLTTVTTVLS

[6] = test system: insomniacs; conditions: phase III, three months; cited from earlier work
[7] = test system: OX2R-KO mice; test: Chronic ICV injection of OX2R agonist in OX2R-KO mice; type: in vivo, mouse; conditions: ICV 0.5 nmol/day for 35 days
Method: (§2) Bone Analyses. μCT and histomorphometry were performed as described (Wei et al., 2012; Wei et al., 2010). Calcein (20 mg/kg) were injected 2 and 10 days before bone collection. For strength measurement, tibiae were tested by 3-point bending, and a strength parameter (peak load at failure) was assessed with a Test Resources DDL200 axial loading machine outfitted with an Interface SMT1-22 force transducer. Cross-head displacement rate was 0.1 mm/sec. Tests were conducted on the mid-diaphyses with the bones resting on two supports 5 mm apart and the tibial anterior margins facing upward toward the actuator. Serum P1NP and CTX-1 were measured with the Rat/Mouse P1NP EIA kit and the RatLaps™ EIA kit, respectively (Immunodiagnostic Systems) (Wei et al., 2012).
Chronic ICV Injection. Mice were single-housed one week before surgery. After anesthetized with 2-3% isoflurane, a cannula (3300PM/SPC; PlasticsOne) was implanted into the right lateral ventricle (0.3 mm posterior from the bregma, […] lateral from the midline, and 2.4 mm from the surface of skull) using standard sterile stereotactic techniques as described (Funato et al., 2009). An osmotic minipump (model 1004; Alzet) was attached to the cannula and implanted in the subcutaneous space. […]

[8] = test system: WT mice; test: Chronic ICV injection of OX2R agonist in WT mice, bone analyses; type: in vivo, mouse
Method: as §2
(§3) Chronic ICV Injection. Mice were single-housed one week before surgery. After anesthetized with 2-3% isoflurane, a cannula (3300PM/SPC; PlasticsOne) was implanted into the right lateral ventricle (0.3 mm posterior from the bregma, […] lateral from the midline, and 2.4 mm from the surface of skull) using standard sterile stereotactic techniques as described (Funato et al., 2009). An osmotic minipump (model 1004; Alzet) was attached to the cannula and implanted in the subcutaneous space. The OX2R selective agonist ([Ala11, D-Leu15] Orexin-B; American Peptide) (Asahi et al., 2003) or PBS control was continuously injected in the lateral ventricle for 35 days (0.5 nmol/day) before analyses. Ovariectomy or sham operation was performed 3 days before ICV infusion as described (Wei et al., 2011b).

[9] = test system: Ob/Ob mice; test: Chronic ICV injection of OX2R agonist in Ob/Ob mice; type: in vivo, mouse
Method: as §2, §3

[10] = test system: OVX-induced bone loss in WT female mice; test: Chronic ICV injection of OX2R agonist in ovariectomy (OVX) mouse model; type: in vivo; conditions: ICV 0.5 nmol/day for 35 days from 3 days after OVX, 6-month-old female mice
Method: as §2, §3

[11] = test system: 3T3-L1 adipocytes; conditions: cited from earlier work
[12] = biological target: T2, OX1 (Homo sapiens, UniProt O43613); conditions: OX1 vs OX2; cited from earlier work
T2 sequence (O43613 1-425): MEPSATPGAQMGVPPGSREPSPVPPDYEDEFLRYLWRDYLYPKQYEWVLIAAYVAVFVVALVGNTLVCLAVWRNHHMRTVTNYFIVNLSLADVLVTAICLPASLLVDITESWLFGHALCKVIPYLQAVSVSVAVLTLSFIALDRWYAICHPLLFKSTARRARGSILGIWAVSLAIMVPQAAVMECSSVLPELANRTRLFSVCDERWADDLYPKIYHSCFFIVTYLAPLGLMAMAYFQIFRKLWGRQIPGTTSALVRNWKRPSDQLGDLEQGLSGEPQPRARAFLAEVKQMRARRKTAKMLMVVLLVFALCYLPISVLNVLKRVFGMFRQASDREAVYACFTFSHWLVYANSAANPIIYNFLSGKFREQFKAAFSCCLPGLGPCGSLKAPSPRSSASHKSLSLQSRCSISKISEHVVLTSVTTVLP

[13] = biological target: T3, orexin receptor type 2 (Homo sapiens, UniProt O43614); conditions: type 2 vs type 1; cited from earlier work
T3 sequence (O43614 1-444): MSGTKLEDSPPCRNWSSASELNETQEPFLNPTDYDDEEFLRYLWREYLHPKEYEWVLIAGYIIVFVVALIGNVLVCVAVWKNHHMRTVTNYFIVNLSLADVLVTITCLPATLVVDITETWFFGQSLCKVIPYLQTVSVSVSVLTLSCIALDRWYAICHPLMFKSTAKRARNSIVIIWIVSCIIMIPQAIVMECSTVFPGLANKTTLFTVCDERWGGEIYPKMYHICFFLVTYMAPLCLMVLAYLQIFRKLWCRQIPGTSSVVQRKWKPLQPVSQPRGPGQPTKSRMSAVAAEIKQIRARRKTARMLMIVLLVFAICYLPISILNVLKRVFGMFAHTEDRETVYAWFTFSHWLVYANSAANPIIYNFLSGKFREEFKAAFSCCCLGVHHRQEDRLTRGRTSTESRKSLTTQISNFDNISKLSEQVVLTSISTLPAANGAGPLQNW

[14] = ICV 0.5 nmol/day for 35 days, WT male mice, serum
[15] = ICV 0.5 nmol/day for 35 days, WT male mice, tibiae μCT

## CNC(=O)[C@@H](c1ccccc1)N1CCc2cc(OC)c(OC)cc2[C@@H]1CCc1ccc(C(F)(F)F)cc1 [ACT-078573, almorexant]
[1]
  ghrelin expression in adipocyte differentiation cultures: enhanced
  ghrelin secretion: elevated
[2]
  osteoblast differentiation: promoted
[3]
  adipocyte differentiation: attenuated
[4]
  ghrelin induction during osteoblast differentiation: potentiated
  ghrelin secretion: elevated

## Cc1nc2ccc(NC(=O)Nc3ccnc4cccnc34)cc2o1 [SB-334,867]
[5]
  nicotine self-administration: decreased

## Cc1cc(NC(=O)Nc2ccc(N(C)C)cc2)c2cc(F)cc(F)c2n1 [SB-408124]
[1]
  ghrelin expression in adipocyte differentiation cultures: enhanced
  ghrelin secretion: elevated
[2]
  osteoblast differentiation: promoted
[3]
  adipocyte differentiation: attenuated
[4]
  ghrelin induction during osteoblast differentiation: potentiated
  ghrelin secretion: elevated

## Cc1ccc(-n2nccn2)c(C(=O)N2CCN(c3nc4cc(Cl)ccc4o3)CC[C@H]2C)c1 [suvorexant]
[6]
  falling asleep: faster
  sleep duration: an hour longer

## [Ala11, D-Leu15] Orexin-B [OX2R-AG]
[7]; 10-week-old OX2R-KO male mice
  Serum P1NP: unaltered
[7]; OX2R-KO male mice
  bone anabolic effect: abolished
[8]; ICV 0.5 nmol/day for 35 days, WT male mice
  bone mass (μCT): remarkably enhanced
[8]; [14]
  CTX-1: unaltered
  P1NP, increased: 100%
[8]; ICV 0.5 nmol/day for 35 days, WT male mice, three-point bending
  peak load at fracture, higher: 11%
[8]; [15]
  BMD, higher: 8%
  SMI, lower: 25%
  Tb.N, higher: 32%
  Tb.Sp, lower: 33%
  Tb.Th, higher: 30%
  cortical bone BV/TV, higher: 1%
  cortical bone porosity, less: 30%
  trabecular BV/TV, higher: 66%
[8]; ICV injection, WT mice
  serum leptin levels: decreased
[9]
  BV/TV: no longer able to increase
  Tb.N: no longer able to increase
  Tb.Sp: no longer able to increase
[9]; 12 week old male
  bone enhancing effects: completely abolished
[9]; serum
  P1NP: no longer able to increase
[10]
  OVX-induced bone loss: attenuated
  OVX-mediated increase in CTX-1: not significantly altered
  OVX-mediated reduction in P1NP: significantly abolished
  OVX-mediated reduction in bone formation rate: rescued
  OVX-mediated reduction in osteoblast number: rescued

## orexin-A: Human orexin-A peptide, 33 amino acid residues, agonist for OX1R and OX2R (QPLPDCCRQKTCSCRLYELLHGAGNHAAGILTL; ends and bridges not checked; cysteine pairing not given here; UniProt O43612 34-66, looked up)
[11]; 3T3-L1 adipocytes
  glucose uptake: stimulates
[11]; adipocytes
  lipogenesis: increases
  lipolysis: inhibits
  secretion of adiponectin: stimulates
[1]
  ghrelin expression in adipocyte differentiation cultures: inhibited
[2]
  osteoblast differentiation: inhibited
[12]
  binding to both OX1 and OX2: approximately equal affinity
[3]
  adipocyte differentiation: enhanced
[4]
  ghrelin induction during osteoblast differentiation: abolished

## orexin-B: Human orexin-B, linear 28 amino acid residue peptide, agonist for mainly OX2R
[12]
  potency at OX1, less than at OX2: 5 times
[13]
  selectivity for orexin receptor type 2: 10 fold
